Results taken from ChEMBL document CHEMBL1201862, “PubChem BioAssay data set” (2004).
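48-hour exposure; five concentrations; linearly interpolated endpoints. GI50 = concentration required for 50% inhibition of growth.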 Calls of active or inactive are those of the source. No stated cut-off is given here; in the data, active = GI50 up to about 1.1 µM and inactive = higher.

What was measured:
Assay in all cases: inhibition of tumour cell growth, NCI panel, 48 h
ACHN = test system: ACHN
COLO 205 = test system: COLO 205
HL-60 = test system: HL-60
HOP-62 = test system: HOP-62
HOP-92 = test system: HOP-92
IGROV-1 = test system: IGROV-1
LOX IMVI = test system: LOX IMVI
M14 = test system: M14
MDA-MB-435 = test system: MDA-MB-435
NCI-H23 = test system: NCI-H23
SF-295 = test system: SF-295
SK-MEL-28 = test system: SK-MEL-28
SK-MEL-5 = test system: SK-MEL-5
SNB-75 = test system: SNB-75
U-251 = test system: U-251
UACC-62 = test system: UACC-62
UO-31 = test system: UO-31
OVCAR-4 = test system: OVCAR-4
NCI-H226 = test system: NCI-H226

Row | Compound | GI50 (ACHN) | GI50 (COLO 205) | GI50 (HL-60) | GI50 (HOP-62) | GI50 (HOP-92) | GI50 (IGROV-1) | GI50 (LOX IMVI) | GI50 (M14) | GI50 (MDA-MB-435) | GI50 (NCI-H23) | GI50 (SF-295) | GI50 (SK-MEL-28) | GI50 (SK-MEL-5) | GI50 (SNB-75) | GI50 (U-251) | GI50 (UACC-62) | GI50 (UO-31) | GI50 (OVCAR-4) | GI50 (NCI-H226)
1 | CC(C)CC[C@H](O)[C@@H](C)[C@H]1[C@@H](OC2OC(C)C(O)C(O)C2O)C[C@H]2[C@@H]3CC=C4C[C@@H](O)CC[C@]4(C)[C@H]3[C@@H](O)C[C@]12C (stereo not given in full) | > 27.7 µM (inactive) | 1.8 µM (inactive) | 0.098 µM (active) | 0.301 µM (active) | 0.312 µM (active) | 4.42 µM (inactive) | 0.889 µM (active) | 1.55 µM (inactive) | 1.55 µM (inactive) | 8.49 µM (inactive) | 0.0402 µM (active) | 0.506 µM (active) | 3.35 µM (inactive) | 5.4 µM (inactive) | 0.0562 µM (active) | 0.538 µM (active) | 1.77 µM (inactive) | – | –
2 | Oc1nc(S)nc2nc3c4cccnc4c4ccccc4c3nc12 | > 100 µM (inactive) | > 100 µM (inactive) | 30.9 µM (inactive) | 52.7 µM (inactive) | > 100 µM (inactive) | > 100 µM (inactive) | – | > 100 µM (inactive) | > 100 µM (inactive) | > 100 µM (inactive) | > 100 µM (inactive) | 77.1 µM (inactive) | > 100 µM (inactive) | 48.4 µM (inactive) | > 100 µM (inactive) | > 100 µM (inactive) | > 100 µM (inactive) | > 100 µM (inactive) | –
3 | O=C(OCc1nc2ccc(Br)cc2c(=O)n1-c1ccccc1)c1ccccc1O | 70.5 µM (inactive) | > 100 µM (inactive) | 36.7 µM (inactive) | > 100 µM (inactive) | > 100 µM (inactive) | > 100 µM (inactive) | > 100 µM (inactive) | > 100 µM (inactive) | – | 37.3 µM (inactive) | > 100 µM (inactive) | > 100 µM (inactive) | 18.1 µM (inactive) | 28.4 µM (inactive) | > 100 µM (inactive) | > 100 µM (inactive) | 29.8 µM (inactive) | 34.1 µM (inactive) | 57.5 µM (inactive)
4 | Cn1c2cc(O)cc(O)c2c(=O)c2c([N+](=O)[O-])cccc21 | > 100 µM (inactive) | > 100 µM (inactive) | > 100 µM (inactive) | > 100 µM (inactive) | > 100 µM (inactive) | > 100 µM (inactive) | > 100 µM (inactive) | > 100 µM (inactive) | – | > 100 µM (inactive) | > 100 µM (inactive) | > 100 µM (inactive) | > 100 µM (inactive) | > 100 µM (inactive) | > 100 µM (inactive) | > 100 µM (inactive) | > 100 µM (inactive) | > 100 µM (inactive) | > 100 µM (inactive)
